These are literature values, as cited in patent US8618066B1 (priority 2003, dated 2013).

Entries after “also recorded” stand apart in the source; their conditions may differ.

One data set concerns Gram+ & Gram− bacteria, fungi, virus, mammalian/cancer cells. As to conditions: cited from earlier work.
Turning to “Ib-AMP3: peptide, source Impatiens balsamina (RHRCCAWGPGRKYCKRWC; Ib-antimicrobial peptidic agent3; listed as Impatiens balsamina)”, the Activity result is “Gram+, Fungi”.
For the substance “Ranatuerin-2CA: peptide, source Green frog (GLFLDTLKGAAKDVAGKLLEGLKCKIAGCKP; Rana clamitans; Ranatuerin-2CA)”, the Activity entry is recorded as “Gram+ & Gram−, Fungi”.
As to “HNP-5 Defensin: peptide, source Human (QARATCYCRTGRCATRESLSGVCEISGRLYRLCCR; HNP-5 Defensin; listed as Homo sapiens)”, the Activity result is on record as “Gram+ & Gram−, Fungi”.
With “Pseudo-hevein (Minor hevin): peptide, source Para rubber tree (EQCGRQAGGKLCPNNLCCSQYGWCGSSDDYCSPSKNCQSNCKGGG; Pseudo-hevein (Minor hevein); listed as Hevea brasiliensis)”, the Activity result is “Fungi”.
In the case of FRLKHI [SEQ ID No. 198], the Activity result is given as “Gram+ & Gram−, Fungi”.
Consider “BMAP-28: peptide, source Bovine (GGLRSLGRKILRAWKKYGPIIVPIIRIG; BMAP-28; listed as Bos taurus)”, for which the Activity result is recorded as “Gram+ & Gram−, Fungi”.
Turning to “AMP2 (MJ-AMP2): peptide, source Garden four-o'clock (CIGNGGRCNENVGPPYCCSGFCLRQPNQGYGVCRNR; antimicrobial peptidic agent2 (MJ-antimicrobial peptidic agent2); listed as Mirabilis jalapa)”, the Activity entry is recorded as “Gram+, Fungi”.
For the substance “Buforin I: peptide, source Asian toad (AGRGKQGGKVRAKAKTRSSRAGLQFPVGRVHRLLRKGNY; Bufo bufo gargarizans; Buforin 1)”, the Activity entry is “Gram+ & Gram−, Fungi”.
Consider “Alpha-basrubrin (Fragment): source Malabar spinach (GADFQECMKEHSQKQHQHQG; Alpha-basrubrin (Fragment); listed as Basella alba)”, for which the Activity entry was “Virus, Fungi”.
For the substance “Tracheal antimicrobial peptide: peptide, source Bovine (NPVSCVRNKGICVPIRCPGSMKQIGTCVGRAVKCCRKK; Tracheal antimicrobial peptide; listed as Bos taurus)”, the Activity result was “Gram+ & Gram−, Fungi”.
In the case of “Tachystatin A: peptide, source Horseshoe Crab (YSRCQLQGFNCVVRSYGLPTIPCCRGLTCRSYFPGSTYGRCQRY; Tachystatin A Peptide; listed as Tachypleus tridentatus)”, the Activity entry is reported as “Gram+ & Gram−, Fungi”.
For “SEQ ID No. 27: synthetic antifungal peptide, Table 1 (WRF)”, the Activity entry is on record as “Fungi”.
For “GNCP-2: peptide, source Guinea pig (RCICTTRTCRFPYRRLGTCLFQNRVYTFCC; GNCP-2; listed as Cavia cutleri)”, the Activity entry was “Gram+ & Gram−, Virus, Fungi”.
In the case of “Ranatuerin-2CB: peptide, source Green frog (GLFLDTLKGLAGKLLQGLKCIKAGCKP; Rana clamitans; Ranatuerin-2CB)”, the Activity result is recorded as “Gram+ & Gram−, Fungi”.
On to “RatNP-3: peptide, source Rat (CSCRTSSCRFGERLSGACRLNGRIYRLCC; RatNP-3; listed as Rattus norvegicus)”, for which the Activity result was “Gram+ & Gram−, Virus, Fungi”.
In the case of “SEQ ID No. 31: synthetic antifungal peptide, Table 1 (FHLRF)”, the Activity result is recorded as “Fungi”.

Still in this data set, the particulars now being: classes of organisms/cells the peptide is active against; cited from earlier work.
“Parabutoporin: peptide, source Scorpion (FKLGSFLKKAWKSKLAKKLRAKGKEMLKDYAKGLLEGGSEEVPGQ; Parabutoporin; listed as Parabuthus schlechteri)”: the Activity entry is recorded as “Gram+ & Gram−, Fungi,; also recorded: Mammalian cells”.
With “ADENOREGULIN: peptide, source Two coloured leaf frong (GLWSKIKEVGKEAAKAAAKAAGKAALGAVSEAV; Phyllomedusa bicolor; Adenoregulin)”, the Activity entry is “Gram+ & Gram−, Fungi”.
